Data: patent publication US8877736B2, “Method for treating keloid by administering 3′sialyllactose or 6′sialyllactose as a pharmaceutical or cosmetic” (Benebiosis Co., Ltd., priority 2009, dated 2014)
Entries after “also recorded” stand apart in the source; their conditions may differ.

Columns and labels:
Assay type in all cases: cell-based
[1] = tested on: Human keloid fibroblasts (CRL 1762); experiment: Cell counting of keloid fibroblasts (trypan blue); conditions: 1 mM, up to 12 days, compared with negative control (PBS), FIG. 1
Description: (§1) Human keloid fibroblasts (CRL 1762) were purchased from ATCC. Medium has the following composition: DMEM (Dulbecco's Modified Eagle's Medium), 4 mM L-glutamine, 100 μg/ml streptomycin, 100 U/ml penicillin and 10% fetal bovine serum. The fibroblasts were incubated at 37° C. in a CO2 incubator under humid atmosphere (5% CO2, 95% air). Medium was replaced every 3-4 days.
Keloid fibroblasts (KF) were plated at 5×10^4 cells/well in a 6-well plate. 24 hours later, KF was incubated with 1 mM 3′-sialyllactose (3′-SL), 6′-sialyllactose (6′-SL) or excipient (Phosphate buffered saline, PBS). 3′-Sialyllactose (3′-N-Acetylneuraminyl-D-lactose, 3′-Sialyl-D-lactose or α-NeuNAc-(2→3)-β-D-Gal-(1→4)-D-Glc) or 6′-sialyllactose (6′-N-Acetylneuraminyl-lactose, 6′-Sialyl-D-lactose, or α-NeuNAc-(2→6)-β-D-Gal-(1→4)-D-Glc) were purchased from Sigma-Aldrich. After 0, 1, 5, 7, 9, and 12 days, KF was collected using trypsin-EDTA and stained with trypan blue, followed by cell counting using a blood cell counter (C-Chip DHC N15, Incyto).

[2] = tested on: Human keloid fibroblasts (CRL 1762); experiment: XTT cell proliferation analysis of keloid fibroblasts; conditions: 1 mM, 0-5 days, compared with negative control (PBS), FIG. 2
Description: as §1
The rate of cell proliferation was measured using Roche's Cell Proliferation Kit II (XTT) system. Keloid fibroblasts (KF) were plated at 2.0×10^3 cells/well in a 96-well plate and then treated 3′-SL, 6′-SL and PBS at a concentration of 1 mM, respectively. After 0, 1, 3 and 5 days, KF was incubated with 50 μl/well of XTT (sodium 3′-[1-(phenylaminocarbonyl)-3,4-tetrazolium]-bis(4-methoxy-6-nitro) benzene sulfonic acid hydrate) reagent for 4 hr at 37° C. and the absorbance at 470 nm was measured using a microplate reader. The relative survival rates of groups treated with sialyllactose were calculated with reference to untreated sialyllactose group (i.e., excipient treatment group, 100% survival rate).

[3] = tested on: RAW 264.7 cells; experiment: Cytotoxicity analysis, MTT assay on RAW 264.7 cells; conditions: 0.001, 0.01, 0.1 and 1 mM, 5 days, compared with negative control (PBS), FIGS. 4a-4b
Description: Cytotoxicity of sialyllactose to cells other than keloid fibroblasts was analyzed RAW 264.7 cells (TIB-71) were purchased from ATCC. Dulbecco's Modified Eagle's Medium (DMEM) was purchased from JBI and supplemented with 100 U/ml penicillin, 100 μg/ml streptomycin, and 10% fetal bovine serum (FBS). Medium was replaced every 3-4 days. The cells were incubated at 37° C. in a CO2 incubator. For investigation of cell proliferation rate, MTT quantification was performed. RAW 264.7 cells were plated at 2.0×10^3 cells/well in a 96-well plate and 3′-SL or 6′-SL was treated at a concentration of 0.001, 0.01, 0.1, and 1 mM. A negative control group was treated with PBS. After 5 days, the cells were incubated with 500 μg/ml MTT solution for 4 hr at 37° C. […], the absorbance at 540 nm was measured using formazan in diumsulfoxide (DMSO). The relative survival rates of groups treated with sialyllactose were calculated with reference to untreated sialyllactose group (i.e., PBS treatment group, 100% survival rate).

[4] = tested on: Human keloid fibroblasts (CRL 1762); experiment: TUNEL analysis of apoptosis of keloid fibroblasts; conditions: 1 mM, 0-5 days, FIG. 3
Description: as §1
Using in situ cell death detection kit (TUNEL, Roche Diagnostics), apoptosis was analyzed and DNA fragmentation in keloid fibroblasts was quantified. A single layer of keloid fibroblasts was cultured directly in a tissue culture flask and then incubated with 1 mM 3′-SL, 6′-SL or PBS. Following 0, 1, 3 and 5 days, the analysis was carried out according to the manufacturer's manual.

Row | SMILES | growth of keloid fibroblasts (cell counting) [1] | proliferation of keloid fibroblasts (XTT; text says MTT analysis) [2] | proliferation of RAW 264.7 cells (MTT) [3] | apoptosis of keloid fibroblasts (TUNEL) [4] | apoptosis of keloid fibroblasts (TUNEL) ([4]; listed as 6′ SL)
1 | CC(=O)N[C@H]1[C@H]([C@H](O)[C@H](O)CO)O[C@@](O[C@H]2[C@@H](O)[C@@H](CO)O[C@@H](O[C@H]3[C@H](O)[C@@H](O)C(O)O[C@@H]3CO)[C@@H]2O)(C(=O)O)C[C@@H]1O (stereo partly drawn) [3′-SL, α-NeuNAc-(2→3)-β-D-Gal-(1→4)-D-Glc] | considerably inhibited | considerably inhibited | not affected | induced | 
2 | CC(=O)N[C@H]1[C@H]([C@H](O)[C@H](O)CO)O[C@@](OC[C@H]2O[C@@H](O[C@H]3[C@H](O)[C@@H](O)[C@H](O)O[C@@H]3CO)[C@H](O)[C@@H](O)[C@H]2O)(C(=O)O)C[C@@H]1O [6′-SL, α-NeuNAc-(2→6)-β-D-Gal-(1→4)-D-Glc] | considerably inhibited; also recorded: more significantly inhibited by 6′-SL than the 3′-SL | considerably inhibited; also recorded: more significantly inhibited by 6′-SL than the 3′-SL | not affected | more significantly inhibited by 6′-SL than the 3′-SL | induced
